Test results: patent US20240043860A1, “NOVEL HYDROXYPHENYLPYRUVATE DIOXYGENASE POLYPEPTIDES AND METHODS OF USE THEREOF” (Syngenta Crop Protection AG, priority 2020, published 2024)

Legend:
[1] = system: transgenic tobacco plants expressing mutant HPPD SEQ ID NO: 14; assay: spray test, herbicidal damage scoring; format: in vivo
Description: (§1) Avena sativa HPPD or orthologues and variants thereof, for example SEQ IDs 1-63 and 122-127, were expressed in transgenic tobacco. DNA sequences that encode these polypeptides (optimized for tobacco or, optionally, codon optimized according to a target crop such as soybean) were prepared synthetically. Each sequence was designed to include a 5′ fusion with TMV omega 5′ leader sequence such that they are flanked at the 5′ end with XhoI and at the 3′ end with KpnI to facilitate direct cloning into a suitable binary vector for Agrobacterium-based plant transformation.
In one example, the TMV omega 5′ leader and a HPPD encoding gene of interest is excised using XhoI/KpnI and cloned into similarly digested binary vector pBIN 19 (Bevan, Nucl. Acids Res. (1984) behind a double enhanced 35S promoter ahead of a NOS 3′ transcription terminator and then transformed into E. coli DH5 alpha competent cells. DNA recovered from the E. coli is used to transform Agrobacterium tumefaciens LBA4404, and transformed bacteria are selected on media contain rifampicin and kanamycin. Tobacco tissue is subjected to Agrobacterium-mediated transformation using methods well described in the art or as described herein. For example, a master plate of Agrobacterium tumefaciens containing the HPPD expressing the binary vector is used to inoculate 10 ml LB (L broth) containing 100 mg/l Rifampicin plus 50 mg/l Kanamycin using a single bacterial colony. This is incubated overnight at 28° C. shaking at 200 rpm. This entire overnight culture is used to inoculate a 50 ml volume of LB containing the same antibiotics. Again this is cultured overnight at 28° C. shaking at 200 rpm. The Agrobacterium cells are pelleted by centrifuging at 3000 rpm for 15 minutes and then resuspended in MS (Murashige and Skoog) medium containing 30 g/l sucrose, pH 5.9 to an OD […]=0.6. This suspension is dispensed in 25 ml aliquots into petri dishes.
Once rooted, plantlets are transferred from agar and potted into 50% peat, 50% John Innes Soil No. 3 or, for example, MetroMix® 380 soil (Sun Gro Horticulture, Bellevue, WA) with slow-release fertilizer in 3 inch round or 4 inch square pots and left regularly watered to establish for 8-12d in the glass house. Glass house conditions are about 24-27° C. day; 18-21° C. night and approximately a 14h (or longer in UK summer) photoperiod. Humidity is adjusted to ˜65% and light levels used are up to 2000 umol/m^2 at bench level. Once new tissue emerged and plants reach the 2-4 leaf stage, some of the clones from each event are sprayed with an HPPD inhibitor of interest selected from the herbicides listed in reference to Example 1. […] For example Callisto® is mixed in water with 0.2-0.25% X-77 surfactant and sprayed from a boom on a suitable track sprayer moving at 2 mph in a DeVries spray chamber (Hollandale, MN) with the nozzle about 2 inches from the plant tops.
Plants are assessed for damage and scored at, for example, 7 and 14 days after treatment (DAT). About 20-30 TO events are produced for a number of HPPD variant genes.
Plants of events showing the least damage are grown to flowering, then bagged and allowed to self. […] Single copy events amongst the Ti plant lines are identified by their 3:1 segregation ratio (with respect to kanamycin and/or herbicide) and by quantitative RT-PCR. Seed from the thus selected Ti tobacco (var. Samsun) lines are sown in 3 inch diameter pots containing 50% peat and 50% John Innes Soil No. 3. After growth to the 3 leaf stage, plants are sprayed as described above in order to test for herbicide tolerance relative to like-treated non-transgenic tobacco plants, and also in comparison with like-treated Ti plants expressing the base HPPD SEQ IDs 122-125. HPPD expression levels were monitored by Western analysis. […]

[2] = biological target: HPPD variant AVESA V200 (SEQ ID NO: 5) (Avena sativa, UniProt A0ACD5V6K6, A327R/I340E/L359M/V218I/V260A); assay: biochemical
Description: 25 ul of the overnight cultures were inoculated into fresh 96-deepwell block containing 1 ml Formedium Autoinduction Media (AIM). The AIM cultures were grown for 3h at 37° C. (900rpm) and then transferred to 20° C. overnight (900rpm) to allow protein expression. The overnight cultures were centrifuged and 500 ul of Cellytic B (Sigma Aldrich) was added to resuspend the cell pellets. The coupled HGO assay (Siehl et al, 2014) is used to generate IC50 values for the HPPD variants of interest.
E. coli BL21 (DE3) cells were transformed with a pET24a vector containing a C-terminally his-tagged Arabidopsis HGO gene, grown and induced overnight as described for the HPPD variants above. […]
The coupled HGO assay is carried out by adding 10 ul of HPPD extract to a 96-well plate and then adding 40 ul of reaction buffer (50 mM Bis Tris Propane, pH7.0, 25 mM sodium-L-ascorbate, 400μM mercaptoethanol, 50 μM Fe(II)SO4). […] 200 ul of HPP/HGO (197 μM hydroxyphenylpyruvic acid, 16 μl/ml Homogentisic Acid Oxidase in reaction buffer as described above) buffer is then added to the well and the reaction is regularly monitored (e.g. every 30 seconds-5 minutes) for absorbance at 330 nm for a given time period (e.g., for between 15-60 minutes). […]

[3] = system: transgenic tobacco plants expressing mutant HPPD SEQ ID 20; assay: spray test, herbicidal damage scoring; format: in vivo; settings: several events expressing SEQ ID 20; 800 g/ha (Table 3.3)
Description: as §1, with “transformation. […]” for “transformation.”
Plants are assessed for damage and scored at, for example, 7 and 14 days after treatment (DAT). […]
Plants of events showing the least damage are grown to flowering, then bagged and allowed to self. […] Single copy events amongst the Ti plant lines are identified by their 3:1 segregation ratio (with respect to kanamycin and/or herbicide) and by quantitative RT-PCR. […] HPPD expression levels were monitored by Western analysis.
The tobacco lines expressing SEQ ID 122 were now compared to a population of tobacco which express SEQ ID 20. The plants were sprayed with 800g/ha Bicyclopyrone and scored for damage.

HPPD variant AVESA V200 (SEQ ID NO: 5), sequence (A0ACD5V6K6 entry or part of it V218I/V260A/A327R/I340E/L359M): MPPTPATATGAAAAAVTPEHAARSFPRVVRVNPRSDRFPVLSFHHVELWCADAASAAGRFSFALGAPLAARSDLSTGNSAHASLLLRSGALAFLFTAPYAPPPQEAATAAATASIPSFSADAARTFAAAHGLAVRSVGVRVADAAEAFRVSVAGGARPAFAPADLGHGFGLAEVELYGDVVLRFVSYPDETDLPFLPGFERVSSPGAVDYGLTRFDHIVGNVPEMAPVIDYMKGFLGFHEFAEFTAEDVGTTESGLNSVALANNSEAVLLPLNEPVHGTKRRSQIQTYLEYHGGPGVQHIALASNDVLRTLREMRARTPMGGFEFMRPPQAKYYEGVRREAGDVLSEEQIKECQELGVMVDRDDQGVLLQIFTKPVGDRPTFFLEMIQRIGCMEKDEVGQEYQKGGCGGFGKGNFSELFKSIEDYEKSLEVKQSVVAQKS

In the case of COc1ccc(-n2nc(C)cc(C(=O)C3C(=O)CCCC3=O)c2=O)cc1OC [Herbicide C, dioxopyritrione], the damage ([1]; 200 g/ha, SEQ ID 14 plants compared to plants expressing SEQ IDs 122, 124 or 125) is reported as “reduced damage”, the stunting ([1]; FIG. 4, 300 ai/ha, SEQ ID NO: 14 plants compared to plants expressing the wild-type HPPD (SEQ ID NO: 1)) is reported as “significantly reduced stunting” and the chlorosis ([1]; FIG. 4, 300 ai/ha, some multi-copy events expressing SEQ ID NO: 14) is reported as “Almost no chlorosis”. The “chlorosis (yellowing of leaf tissue)” value ([1]; FIG. 5, 50 g/ha, SEQ ID NO: 14 plants compared to plants expressing SEQ ID NO: 122 or SEQ ID NO: 17) was “significantly reduced chlorosis”, the “tolerance in comparison to SEQ ID NO: 122” value ([1]; many lines expressing SEQ ID NO: 14, 100 g/ha (Table 3.1)) was “significantly improved tolerance” and the damage ([1]; several lines expressing SEQ ID NO: 14, 100 g/ha (Table 3.1)) was “less than 10%”.
Cn1nnnc1NC(=O)c1ccc(C(F)(F)F)nc1-n1cncn1 [Herbicide D, N-(1-methyltetrazol-5-yl)-2-(1,2,4-triazol-1-yl)-6-(trifluoromethyl)pyridine-3-carboxamide] was tested, and the IC50 [2] was 63.2 µM.
bicyclopyrone was tested, and the “tolerance in comparison to events expressing SEQ ID 122” value [3] was “increased tolerance”.
